Patent US7005432B2, “Substituted imidazol-pyridazine derivatives” (Hoffman-La Roche Inc., priority 2002, dated 2006)
Where a name gives a salt, the structure may show the parent alone.

Molecular target: T1, NMDA-receptor subtype 2B (Rattus norvegicus, UniProt P35439+Q00960)
T1 construct: Membranes were prepared by homogenization of the whole brain minus cerebellum and medulla oblongata; from tissue; host or cells: rat whole brain minus cerebellum and medulla oblongata (membranes)
Experiment: 3H-Ro 25-6981 binding (displacement) on rat brain membranes
Settings: displacement of 5 nM 3H-Ro 25-6981, rat whole brain (minus cerebellum and medulla oblongata) membranes, 2 hours at 4° C., Tris-HCl 50 mM pH 7.4
Experimental: ^3H-Ro 25-6981 binding (Ro 25-6981 is [R-(R*,S*)]-α-(4-hydroxy-phenyl)-β-methyl-4-(phenyl-methyl)-1-piperidine propanol)
Male Füllinsdorf albino rats weighing between 150-200 g were used. Membranes were prepared by homogenization of the whole brain minus cerebellum and medulla oblongata with a Polytron (10.000 rpm, 30 seconds), in 25 volumes of a cold Tris-HCl 50 mM, EDTA 10 mM, pH 7.1 buffer. The homogenate was centrifuged at 48,000 g for 10 minutes at 4° C. The pellet was resuspended using the Polytron in the same volume of buffer and the homogenate was incubated at 37° C. for 10 minutes. After centrifugation the pellet was homogenized in the same buffer and frozen at −80° C. for at least 16 hours but not more than 10 days. For the binding assay the homogenate was thawed at 37° C., centrifuged and the pellet was washed three times as above in a Tris-HCl 5 mM, pH 7.4 cold buffer. The final pellet was resuspended in the same buffer and used at a final concentration of […].
^3H-Ro 25-6981 binding experiments were performed using a Tris-HCl 50 mM, pH 7.4 buffer. For displacement experiments 5 nM of ^3H-Ro 25-6981 were used and non specific binding was measured using 10 mM of tetrahydroisoquinoline and usually it accounts for 10% of the total. The incubation time was 2 hours at 4° C. and the assay was stopped by filtration on Whatmann GF/B glass fiber filters (Unifilter-96, Packard, Zürich, Switzerland). The filters were washed 5 times with cold buffer. The radioactivity on the filter was counted on a Packard Top-coullt microplate scintillation counter after addition of […] of microscint 40 (Canberra Packard S.A., Zürich, Switzerland).
The effects of compounds were measured using a minimum of 8 concentrations and repeated at least once. The pooled normalized values were analyzed using a non-linear regression calculation program which provide IC50 with their relative upper and lower 95% confidence limits.

T1 sequence (Q00960 27-1482, other chains not shown): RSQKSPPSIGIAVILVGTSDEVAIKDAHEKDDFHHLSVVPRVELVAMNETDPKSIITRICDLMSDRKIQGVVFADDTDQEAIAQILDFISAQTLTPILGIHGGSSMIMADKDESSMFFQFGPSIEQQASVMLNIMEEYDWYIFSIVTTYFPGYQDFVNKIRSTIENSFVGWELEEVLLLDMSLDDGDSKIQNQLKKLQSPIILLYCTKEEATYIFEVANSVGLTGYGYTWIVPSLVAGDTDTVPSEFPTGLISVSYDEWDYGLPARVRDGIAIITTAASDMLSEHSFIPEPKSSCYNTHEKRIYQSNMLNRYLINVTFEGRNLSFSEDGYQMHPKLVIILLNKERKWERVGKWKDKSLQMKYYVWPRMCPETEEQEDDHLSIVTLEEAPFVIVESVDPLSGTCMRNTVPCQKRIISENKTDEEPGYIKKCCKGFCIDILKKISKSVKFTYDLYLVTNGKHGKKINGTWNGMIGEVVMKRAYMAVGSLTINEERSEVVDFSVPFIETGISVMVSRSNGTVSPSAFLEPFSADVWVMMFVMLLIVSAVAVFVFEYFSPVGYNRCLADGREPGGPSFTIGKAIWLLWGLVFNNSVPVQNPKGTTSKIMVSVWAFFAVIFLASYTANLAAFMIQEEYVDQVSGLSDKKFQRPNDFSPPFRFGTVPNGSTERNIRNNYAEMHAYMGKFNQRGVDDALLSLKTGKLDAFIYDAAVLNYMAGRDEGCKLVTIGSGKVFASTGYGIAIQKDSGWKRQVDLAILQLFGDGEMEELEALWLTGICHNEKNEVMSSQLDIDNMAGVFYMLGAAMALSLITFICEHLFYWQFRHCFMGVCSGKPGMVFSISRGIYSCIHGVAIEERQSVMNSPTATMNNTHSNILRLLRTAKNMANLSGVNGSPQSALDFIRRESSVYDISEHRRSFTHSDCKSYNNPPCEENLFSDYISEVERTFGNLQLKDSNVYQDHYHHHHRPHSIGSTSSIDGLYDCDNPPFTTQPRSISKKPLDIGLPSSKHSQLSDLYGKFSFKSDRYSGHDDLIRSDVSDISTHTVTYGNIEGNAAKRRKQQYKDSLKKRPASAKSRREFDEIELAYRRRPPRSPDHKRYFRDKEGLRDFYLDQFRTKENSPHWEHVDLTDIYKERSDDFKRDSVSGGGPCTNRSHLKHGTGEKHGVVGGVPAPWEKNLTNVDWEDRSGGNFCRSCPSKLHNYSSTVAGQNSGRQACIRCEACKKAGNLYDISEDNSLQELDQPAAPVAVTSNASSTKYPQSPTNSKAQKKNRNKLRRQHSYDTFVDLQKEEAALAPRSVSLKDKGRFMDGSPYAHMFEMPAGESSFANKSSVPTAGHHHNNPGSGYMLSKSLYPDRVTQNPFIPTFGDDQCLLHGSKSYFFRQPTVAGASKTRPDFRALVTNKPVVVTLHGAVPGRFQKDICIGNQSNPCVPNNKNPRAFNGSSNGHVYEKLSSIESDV

| Compound | IC50 [nM] |
| --- | --- |
| COc1ccc2ccc(-c3cnnc(Cn4ccnc4C)c3)cc2c1 [Example 48, 5-(7-Methoxy-naphthalen-2-yl)-3-(2-methyl-imidazol-1-yl-methyl)-pyridazine hydrochloride] | 35 |
| Cc1nccn1Cc1cc(-c2cccc(C(C)(F)F)c2)cnn1 [Example 9, 5-[3-(1,1-Difluoro-ethyl)-phenyl]-3-(2-methyl-imidazol-1-yl-methyl)-pyridazine hydrochloride] | 34 |
| Cc1nccn1Cc1cc(-c2ccc(Cl)c(C(F)(F)F)c2)cnn1 [Example 4, 5-(4-Chloro-3-trifluoromethyl-phenyl)-3-(2-methyl-imidazol-1-yl-methyl)-pyridazine hydrochloride] | 27 |
| Cc1nccn1Cc1cc(-c2ccc3c4c(cccc24)CC3)cnn1 [Example 45, 5-Acenaphthen-5-yl-3-(2-methyl-imidazol-1-yl-methyl)-pyridazine hydrochloride] | 57 |
| Cc1nccn1Cc1cc(-c2cccc(C(C)(C)C)c2)cnn1 [Example 34, 5-(3-tert-Butyl-phenyl)-3-(2-methyl-imidazol-1-yl-methyl)-pyridazine hydrochloride] | 68 |
| Cc1nccn1Cc1cc(-c2ccc(F)c3ccccc23)cnn1 [Example 50, 5-(4-Fluoro-naphthalen-1-yl)-3-(2-methyl-imidazol-1-yl-methyl)-pyridazine hydrochloride] | 29 |
| 5-(3-Difluoromethyl-4-fluoro-phenyl)-3-(2-ethyl-imidazol-1-ylethyl)-pyridazine hydrochloride [Example 52] | 26 |
| Cc1nccn1Cc1cc(-c2cccc(C3CC3)c2)cnn1 [Example 14, 5-(3-Cyclopropyl-phenyl)-3-(2-methyl-imidazol-1-yl-methyl)-pyridazine hydrochloride] | 20 |
| Cc1nccn1Cc1cc(-c2ccc3sccc3c2)cnn1 [Example 15, 5-Benzo[b]thiophen-5-yl-3-(2-methyl-imidazol-1-yl-methyl)-pyridazine hydrochloride] | 16 |
| Cc1nccn1Cc1cc(-c2ccc(Cl)c(C(C)(F)F)c2)cnn1 [Example 39, 5-[4-Chloro-3-(1,1-difluoro-ethyl)-phenyl]-3-(2-methyl-imidazol-1-yl-methyl)-pyridazine hydrochloride] | 24 |
| Cc1nccn1Cc1cc(-c2cccc3ccccc23)cnn1 [Example 35, 3-(2-Methyl-imidazol-1-yl-methyl)-5-naphthalen-1-yl-pyridazine hydrochloride] | 25 |
| Cc1nccn1Cc1cc(C2=Cc3ccccc3CC2)cnn1 [Example 68, 5-(3,4-Dihydro-naphthalen-2-yl)-3-(2-methyl-imidazol-1-yl-methyl)-pyridazine hydrochloride] | 27 |
| Cc1nccn1Cc1cc(-c2cc(F)cc(C(F)F)c2)cnn1 [Example 24, 5-(3-Difluoromethyl-5-fluoro-phenyl)-3-(2-methyl-imidazol-1-yl-methyl)-pyridazine hydrochloride] | 47 |
| Cc1nccn1Cc1cc(-c2ccc3ccccc3c2)cnn1 [Example 12, 3-(2-Methyl-imidazol-1-ylmethyl)-5-naphthalen-2-yl-pyridazine-hydrochloride] | 22 |

Second part, the compound after the results:

| IC50 [nM] | Compound |
| --- | --- |
| 48 | Cc1nccn1Cc1cc(-c2cccc(C(C)C)c2)cnn1 [Example 42, 5-(3-Isopropyl-phenyl)-3-(2-methyl-imidazol-1-yl-methyl)-pyridazine hydrochloride] |
| 38 | Cc1nccn1Cc1cc(-c2ccc(F)c(C(F)(F)F)c2)cnn1 [Example 3, 5-(4-Fluoro-3-trifluoromethyl-phenyl)-3-(2-methyl-imidazol-1-yl-methyl)-pyridazine hydrochloride] |
| 54 | COc1cc(-c2cnnc(Cn3ccnc3C)c2)cc(C(F)(F)F)c1 [Example 38, 5-(3-Methoxy-5-trifluoromethyl-phenyl)-3-(2-methyl-imidazol-1-yl-methyl)-pyridazine hydrochloride] |
| 41 | COc1cc(-c2cnnc(Cn3ccnc3C)c2)ccc1Cl [Example 41, 5-(4-Chloro-3-methoxy-phenyl)-3-(2-methyl-imidazol-1-yl-methyl)-pyridazine hydrochloride] |
| 37 | Cc1nccn1Cc1cc(-c2cccc(C(F)(F)F)c2F)cnn1 [Example 58, 5-(2-Fluoro-3-trifluoromethyl-phenyl)-3-(2-methyl-imidazol-1-yl-methyl)-pyridazine hydrochloride] |
| 11 | Cc1nccn1Cc1cc(-c2ccc(Cl)c(Cl)c2)cnn1 [Example 13, 5-(3,4-Dichloro-phenyl)-3-(2-methyl-imidazol-1-yl-methyl)-pyridazine hydrochloride] |
| 34 | COc1cc(-c2cnnc(Cn3ccnc3C)c2)c2ccccc2c1 [Example 49, 5-(3-Methoxy-naphthalen-1-yl)-3-(2-methyl-imidazol-1-yl-methyl)-pyridazine hydrochloride] |
| 58 | Cc1nccn1Cc1cc(-c2cccc(C(F)F)c2)cnn1 [Example 25, 5-(3-Difluoromethyl-phenyl)-3-(2-methyl-imidazol-1-yl-methyl)-pyridazine hydrochloride] |
| 12 | Cc1nccn1Cc1cc(-c2ccc(Cl)c(C(F)F)c2)cnn1 [Example 26, 5-(4-Chloro-3-difluoromethyl-phenyl)-3-(2-methyl-imidazol-1-yl-methyl)-pyridazine hydrochloride] |
| 77 | COc1cccc2c(-c3cnnc(Cn4ccnc4C)c3)cccc12 [Example 36, 5-(5-Methoxy-naphthalen-1-yl)-3-(2-methyl-imidazol-1-yl-methyl)-pyridazine hydrochloride] |
| 7 | Cc1cc(-c2cnnc(Cn3ccnc3C)c2)ccc1Cl [Example 30, 5-(4-Chloro-3-methyl-phenyl)-3-(2-methyl-imidazol-1-yl-methyl)-pyridazine hydrochloride] |
| 17 | Cc1nccn1Cc1cc(-c2ccc(F)c(C(F)F)c2)cnn1 [Example 6, 5-(3-Difluoromethyl-4-fluoro-phenyl)-3-(2-methyl-imidazol-1-yl-methyl)-pyridazine hydrochloride] |
| 21 | Cc1nccn1Cc1cc(-c2ccc(F)c(Cl)c2)cnn1 [Example 1, 5-(3-Chloro-4-fluoro-phenyl)-3-(2-methyl-imidazol-1-yl-methyl)-pyridazine Hydrochloride] |
| 29 | Cc1nccn1Cc1cc(-c2ccc(F)c(C(C)(F)F)c2)cnn1 [Example 11, 5-[3-(1,1-Difluoro-ethyl)-4-fluoro-phenyl]-3-(2-methyl-imidazol-1-yl-methyl)-pyridazine hydrochloride] |
| 10 | Cc1cc(-c2cnnc(Cn3ccnc3C)c2)ccc1F [Example 16, 5-(4-Fluoro-3-methyl-phenyl)-3-(2-methyl-imidazol-1-yl-methyl)-pyridazine hydrochloride] |
| 31 | Cc1nccn1Cc1cc(-c2cc(F)cc(C(C)(F)F)c2)cnn1 [Example 31, 5-[3-(1,1-Difluoro-ethyl)-5-fluoro-phenyl]-3-(2-methyl-imidazol-1-yl-methyl)-pyridazine hydrochloride] |
| 44 | COc1ccc2cc(-c3cnnc(Cn4ccnc4C)c3)ccc2c1 [Example 27, 5-(6-Methoxy-naphthalen-2-yl)-3-(2-methyl-imidazol-1-yl-methyl)-pyridazine hydrochloride] |
